In ChEMBL document CHEMBL1139710, “Syntheses and studies of quinolone-cephalosporins as potential anti-tuberculosis agents” (Bioorg Med Chem Lett, 2006) one finds MIC and IC50 data, which are given here for eight compounds.

Each structure is given as a SMILES string. Converted amounts (≈) assume the structure as drawn.

Experiment [1] deals with Escherichia coli. Description: Antibacterial activity against Escherichia coli DC0. In kind it is functional, organism-based.
The test system of experiment [2] is Pseudomonas aeruginosa. The experiment is described as follows: Antibacterial activity against Pseudomonas aeruginosa KW 799/ 61 permeability mutant. The class given is functional.
Experiment [3] has as its system Staphylococcus aureus. Description: Antibacterial activity against Staphylococcus aureus 134/93 MRSA. The class given is functional.
Experiment [4] relates to Mycolicibacterium smegmatis. The experiment is described as follows: Antibacterial activity against Mycobacterium smegmatis SG987. The class given is functional.
Experiment [5] relates to Mycolicibacterium fortuitum. The experiment is described as follows: Antibacterial activity against Mycobacterium fortuitum B. In kind it is functional.
For experiment [6], the system named is Enterobacter cloacae. Description: Antibacterial activity against Enterobacter cloacae P99. In kind it is functional.
Experiment [7] concerns Staphylococcus aureus. The experiment is described as follows: Antibacterial activity against Staphylococcus aureus SG 511. The class given is functional.
The subject of experiment [8] is Pseudomonas aeruginosa. The experiment is described as follows: Antibacterial activity against Pseudomonas aeruginosa KW 799. In kind it is functional.
Experiment [9] relates to Mycolicibacterium aurum. Description: Antibacterial activity against Mycobacterium aurum DSM 43436. The class given is functional.
Experiment [10] concerns Escherichia coli. Description: Antibacterial activity against Escherichia coli DC2 permeability mutant. In kind it is functional.
In experiment [11] the test system is Mycobacterium tuberculosis. The experiment is described as follows: Antibacterial activity against Mycobacterium tuberculosis H37Rv by microplate alamar blue assay. The class given is functional. A general note: The colour change of resazurin is a common sign of viable cells or microbes.
Experiment [12] relates to Mycolicibacterium vaccae. Description: Antibacterial activity against Mycobacterium vaccae IMET10670. The class given is functional.
Experiment [13] has as its system Enterococcus faecalis. Description: Antibacterial activity against Enterococcus faecalis 1528 VRE. In kind it is functional.
Experiment [14] has as its system Micrococcus luteus. The experiment is described as follows: Antibacterial activity against Micrococcus luteus ATCC 10240. In kind it is functional.
The subject of experiment [15] is Mycolicibacterium aurum. Description: Antibacterial activity against Mycobacterium aurum SB66. The class given is functional.
The test system of experiment [16] is Vero. The experiment is described as follows: Cytotoxicity against Vero cells. The class given is cell-based. The settings on record: Chlorocebus sabaeus.

In general, MIC refers to the least concentration at which growth counts as inhibited. Read a low MIC as inhibition by little substance. In general, IC50 refers to the concentration needed to halve the response being measured. Read a low IC50 as greater potency.

Consider `O=C(Cc1ccccc1)N[C@@H]1C(=O)N2C(C(=O)OC(c3ccccc3)c3ccccc3)=C(CO)CS[C@H]12`, for which the MIC in experiment [1] was > 200 µM; in experiment [2] it was 100 µM (≈ 51.5 µg/mL); in experiment [3], > 200 µM; in [4] it was 200 µM (≈ 103 µg/mL); in [5], 200 µM (≈ 103 µg/mL); in experiment [6], 200 µM (≈ 103 µg/mL). In addition, the MIC in experiment [7] was 3.12 µM (≈ 1.61 µg/mL); in [8] it was 100 µM (≈ 51.5 µg/mL); in experiment [9], 25 µM (≈ 12.9 µg/mL); in experiment [10] it was 200 µM (≈ 103 µg/mL); in [11] it was > 128 µM; in experiment [12], 200 µM (≈ 103 µg/mL). The MIC in experiment [13] came to 200 µM (≈ 103 µg/mL); in experiment [14], 25 µM (≈ 12.9 µg/mL); in [15], 50 µM (≈ 25.7 µg/mL).
`COc1ccc(COC(=O)C2=C(CN3CCN(c4cc5c(cc4F)c(=O)c(C(=O)O)cn5C4CC4)CC3)CS[C@@H]3[C@H](NC(=O)Cc4ccccc4)C(=O)N23)cc1`: the MIC in [1] is 25 µM (≈ 19.5 µg/mL); in experiment [2], 12.5 µM (≈ 9.77 µg/mL); in experiment [3] it was > 200 µM; in experiment [4], 12.5 µM (≈ 9.77 µg/mL); in [5], 12.5 µM (≈ 9.77 µg/mL); in [6], 0.4 µM (≈ 0.313 µg/mL). Besides, the MIC in [7] was found to be 1.56 µM (≈ 1.22 µg/mL); in experiment [8] it was 12.5 µM (≈ 9.77 µg/mL); in experiment [9] it was 1.56 µM (≈ 1.22 µg/mL); in [10] it was 6.25 µM (≈ 4.89 µg/mL); in experiment [11] it was 62.3 µM (≈ 48.7 µg/mL); in experiment [12], 3.12 µM (≈ 2.44 µg/mL). For the same compound, the minimum inhibitory concentration (MIC) in experiment [13] amounted to 50 µM (≈ 39.1 µg/mL); in experiment [14], 3.12 µM (≈ 2.44 µg/mL); in experiment [15], 0.8 µM (≈ 0.625 µg/mL). For the same compound, in experiment [16], the IC50 is 13.1 µM.
Take `O=C(Cc1ccccc1)N[C@@H]1C(=O)N2C(C(=O)O)=C(COC(=O)N3CCN(c4cc5c(cc4F)c(=O)c(C(=O)O)cn5C4CC4)CC3)CS[C@H]12`: the MIC stood at 3.12 µM (≈ 2.2 µg/mL) in experiment [1]; 3.12 µM (≈ 2.2 µg/mL) in experiment [2]; 200 µM (≈ 141 µg/mL) in experiment [3]; 3.12 µM (≈ 2.2 µg/mL) in [4]; 0.8 µM (≈ 0.565 µg/mL) in [5]; 0.2 µM (≈ 0.141 µg/mL) in [6]. Further, the MIC in experiment [7] is 0.4 µM (≈ 0.282 µg/mL); in experiment [8], 3.12 µM (≈ 2.2 µg/mL); in experiment [9], 0.2 µM (≈ 0.141 µg/mL); in experiment [10] it was 0.8 µM (≈ 0.565 µg/mL); in [11], 1.6 µM (≈ 1.13 µg/mL); in [12] it was 1.56 µM (≈ 1.1 µg/mL). Also, the MIC in [13] stood at 6.25 µM (≈ 4.41 µg/mL); in experiment [14], 0.2 µM (≈ 0.141 µg/mL); in [15], 0.2 µM (≈ 0.141 µg/mL). In addition, the IC50 in experiment [16] was > 128 µM.
Consider `O=C(Cc1ccccc1)N[C@@H]1C(=O)N2C(C(=O)OC(c3ccccc3)c3ccccc3)=C(COC(=O)N3CCN(c4cc5c(cc4F)c(=O)c(C(=O)O)cn5C4CC4)CC3)CS[C@H]12`, for which the half-maximal inhibitory concentration (IC50) in experiment [1] is 1.56 µM; in experiment [16], > 128 µM. The MIC in experiment [2] is 1.56 µM (≈ 1.36 µg/mL); in experiment [3], 100 µM (≈ 87.2 µg/mL); in experiment [4], 1.56 µM (≈ 1.36 µg/mL); in [5], 0.8 µM (≈ 0.698 µg/mL); in experiment [6], < 0.1 µM; in [7] it was 0.2 µM (≈ 0.174 µg/mL). In addition, the MIC in [8] stood at 1.56 µM (≈ 1.36 µg/mL); in experiment [9], 0.2 µM (≈ 0.174 µg/mL); in experiment [10], 0.2 µM (≈ 0.174 µg/mL); in [11], 8 µM (≈ 6.98 µg/mL); in experiment [12] it was 1.56 µM (≈ 1.36 µg/mL); in [13] it was 3.12 µM (≈ 2.72 µg/mL). Further, the MIC in experiment [14] came out at 12.5 µM (≈ 10.9 µg/mL); in [15], 0.2 µM (≈ 0.174 µg/mL).
`O=C(Cc1ccccc1)N[C@@H]1C(=O)N2C(C(=O)O)=C(CN3CCN(c4cc5c(cc4F)c(=O)c(C(=O)O)cn5C4CC4)CC3)CS[C@H]12`: the MIC turned out to be 3.12 µM (≈ 2.06 µg/mL) in experiment [1]; 1.56 µM (≈ 1.03 µg/mL) in experiment [2]; 200 µM (≈ 132 µg/mL) in experiment [3]; 3.12 µM (≈ 2.06 µg/mL) in experiment [4]; 3.12 µM (≈ 2.06 µg/mL) in experiment [5]; 0.1 µM (≈ 0.0662 µg/mL) in experiment [6]. Besides, the MIC in [7] came to 1.56 µM (≈ 1.03 µg/mL); in [8], 1.56 µM (≈ 1.03 µg/mL); in experiment [9], 0.4 µM (≈ 0.265 µg/mL); in experiment [10], 0.8 µM (≈ 0.529 µg/mL); in experiment [11] it was 3.8 µM (≈ 2.51 µg/mL); in [12] it was 3.12 µM (≈ 2.06 µg/mL). For the same compound, the results for the MIC in experiment [13], in [14] and in [15] were 12.5 µM (≈ 8.27 µg/mL), 0.4 µM (≈ 0.265 µg/mL) and 0.4 µM (≈ 0.265 µg/mL), respectively. Further, the IC50 in experiment [16] was > 128 µM.
With `COc1ccc(COC(=O)C2=C(CI)CS[C@@H]3[C@H](NC(=O)Cc4ccccc4)C(=O)N23)cc1`, the MIC in [1] was 200 µM (≈ 116 µg/mL); in [2] it was 100 µM (≈ 57.8 µg/mL); in experiment [3], > 200 µM; in experiment [4] it was > 200 µM; in [5], 200 µM (≈ 116 µg/mL); in experiment [6], 100 µM (≈ 57.8 µg/mL). In addition, the MIC in experiment [7] was 6.25 µM (≈ 3.62 µg/mL); in [8] it was 100 µM (≈ 57.8 µg/mL); in experiment [9], 50 µM (≈ 28.9 µg/mL); in experiment [10] it was 200 µM (≈ 116 µg/mL); in experiment [11] it was > 128 µM; in experiment [12], 100 µM (≈ 57.8 µg/mL). Besides, the MIC in experiment [13] was found to be 200 µM (≈ 116 µg/mL); in experiment [14], 100 µM (≈ 57.8 µg/mL); in [15], 100 µM (≈ 57.8 µg/mL).
As for `COc1ccc(COC(=O)C2=C(CCl)CS[C@@H]3[C@H](NC(=O)Cc4ccccc4)C(=O)N23)cc1`, the MIC in [1] is 200 µM (≈ 97.4 µg/mL); in experiment [2], 50 µM (≈ 24.3 µg/mL); in experiment [5], 100 µM (≈ 48.7 µg/mL); in [7], 1.56 µM (≈ 0.76 µg/mL); in experiment [8] it was 100 µM (≈ 48.7 µg/mL); in [11], 31.5 µM (≈ 15.3 µg/mL). For the same compound, the values for the MIC in [12] and in experiment [14] were 100 µM (≈ 48.7 µg/mL) and 50 µM (≈ 24.3 µg/mL), respectively.
With `O=C(O)c1cn(C2CC2)c2cc(N3CCNCC3)c(F)cc2c1=O` [CIPROFLOXACIN], the minimal inhibitory concentration (MIC) in [1] came to 0.4 µM (≈ 0.133 µg/mL); in [2] it was 0.4 µM (≈ 0.133 µg/mL); in [3] it was 50 µM (≈ 16.6 µg/mL); in experiment [4], 0.8 µM (≈ 0.265 µg/mL); in experiment [5] it was 0.2 µM (≈ 0.0663 µg/mL); in [7], 0.8 µM (≈ 0.265 µg/mL). Besides, the MIC is 0.8 µM (≈ 0.265 µg/mL) in [8]; 0.1 µM (≈ 0.0331 µg/mL) in experiment [9]; < 0.1 µM in experiment [10]; 1.8 µM (≈ 0.596 µg/mL) in [11]; 0.8 µM (≈ 0.265 µg/mL) in experiment [12]; 1.56 µM (≈ 0.517 µg/mL) in experiment [13]. Also, the MIC in [14] was 25 µM (≈ 8.28 µg/mL); in [15], 0.1 µM (≈ 0.0331 µg/mL).
